Measurements reported in patent publication US20240307547A1, “NOVEL COMPOUNDS WHICH BIND TO CEREBLON, AND METHODS OF USE THEREOF” (Captor Therapeutics S.A., priority 2020, published 2024).
Blank lines part the entries; values can stand above or below the molecule they belong to.

Experiments:
[1] = molecular target: CRBN-DDB1 protein complex (Homo sapiens, UniProt Q96SW2); experiment: Fluorescence polarization (FP) assay, displacement of Cy5-labelled thalidomide; conditions: read-out: CRBN binding Ki; also: 25 nM CRBN-DDB1
Sequence of CRBN-DDB1 protein complex (Q96SW2 whole entry): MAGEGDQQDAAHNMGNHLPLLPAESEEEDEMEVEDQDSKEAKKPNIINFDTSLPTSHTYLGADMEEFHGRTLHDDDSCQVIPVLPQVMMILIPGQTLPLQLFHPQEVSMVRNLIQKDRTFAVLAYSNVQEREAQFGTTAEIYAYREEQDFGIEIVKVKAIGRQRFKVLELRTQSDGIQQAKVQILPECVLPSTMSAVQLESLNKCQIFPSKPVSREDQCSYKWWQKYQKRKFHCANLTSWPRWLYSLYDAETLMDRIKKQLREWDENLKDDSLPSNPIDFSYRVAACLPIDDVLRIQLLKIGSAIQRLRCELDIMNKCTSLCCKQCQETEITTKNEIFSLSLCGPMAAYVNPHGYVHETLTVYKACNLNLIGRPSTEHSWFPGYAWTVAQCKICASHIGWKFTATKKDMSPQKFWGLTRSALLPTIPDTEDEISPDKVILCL
Sequence of CRBN-DDB1 protein complex (Q16531 whole entry partner): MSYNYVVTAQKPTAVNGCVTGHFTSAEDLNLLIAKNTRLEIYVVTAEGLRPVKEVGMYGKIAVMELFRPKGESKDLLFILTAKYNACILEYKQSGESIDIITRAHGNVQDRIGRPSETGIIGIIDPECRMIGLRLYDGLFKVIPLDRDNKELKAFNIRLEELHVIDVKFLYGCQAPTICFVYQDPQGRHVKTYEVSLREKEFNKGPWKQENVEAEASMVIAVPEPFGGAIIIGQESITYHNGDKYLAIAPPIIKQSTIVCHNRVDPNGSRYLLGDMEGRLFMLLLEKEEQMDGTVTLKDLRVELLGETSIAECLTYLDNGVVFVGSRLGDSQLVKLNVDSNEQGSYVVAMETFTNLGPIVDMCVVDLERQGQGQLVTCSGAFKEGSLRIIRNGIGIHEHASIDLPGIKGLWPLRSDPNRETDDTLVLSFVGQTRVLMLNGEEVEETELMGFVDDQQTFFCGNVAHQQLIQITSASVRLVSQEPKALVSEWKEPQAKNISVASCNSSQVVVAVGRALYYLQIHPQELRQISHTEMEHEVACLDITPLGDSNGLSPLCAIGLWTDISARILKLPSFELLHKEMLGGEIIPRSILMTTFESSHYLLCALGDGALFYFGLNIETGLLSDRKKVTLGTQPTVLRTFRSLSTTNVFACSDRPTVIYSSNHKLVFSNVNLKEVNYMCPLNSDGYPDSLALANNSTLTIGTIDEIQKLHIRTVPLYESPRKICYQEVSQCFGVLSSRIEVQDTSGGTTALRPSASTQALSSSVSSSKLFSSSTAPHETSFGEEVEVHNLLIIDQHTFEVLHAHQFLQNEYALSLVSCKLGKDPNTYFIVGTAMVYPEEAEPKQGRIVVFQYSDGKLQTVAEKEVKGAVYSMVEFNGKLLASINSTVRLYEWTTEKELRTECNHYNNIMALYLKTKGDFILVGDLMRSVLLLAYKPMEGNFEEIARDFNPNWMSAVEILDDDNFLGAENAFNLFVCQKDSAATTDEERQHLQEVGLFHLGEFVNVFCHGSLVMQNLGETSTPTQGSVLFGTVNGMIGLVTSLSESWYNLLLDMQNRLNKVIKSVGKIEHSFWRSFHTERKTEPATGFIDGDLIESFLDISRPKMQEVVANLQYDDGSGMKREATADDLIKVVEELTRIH
Experimental: The test solution was added to a 384-well assay plate.
The plate was spun-down (1 min, 1000 rpm, 22° C.) and then shaken using a VibroTurbulator for 10 min at room temperature (20-25° C.), with the frequency set to level 3. The assay plate with protein and the tracer was incubated for 60 min at room temperature (20-25° C.) prior to read-out with a plate reader.
The FP experiment was carried out with various concentrations of the test compounds in order to measure Ki values.

[2] = tested on: SALL4; experiment: SALL4 degradation assay, Kelly cell line (western blot densitometry); assay type: cell-based; conditions: Kelly cells, after 24 h
Experimental: (§1) Kelly cells were maintained in RPMI-1640 medium, supplemented with penicillin/streptomycin and 10% Fetal Bovine Serum (FBS). Cells were seeded on 6-well plates, and the compounds to be tested were added at the desired concentration range. Final DMSO concentration was 0.25%. After 24 h incubation (37° C., 5% CO2), cells were washed and cell lysates were prepared using RIPA lysis buffer. The amount of protein was determined via BCA assay, and the appropriate quantity was then loaded on the precast gel for the protein separation. After primary and secondary antibody staining, the membranes were washed and signals developed. The densitometry analysis was implemented to obtain the numeric values used later in the protein level evaluation process.
Densitometry values are normalized to the loading control (β-ACTIN) and presented as % of DMSO control in Table 2, below, using the following labels: • ≤25% for 0-25% of SALL4 protein reduction, • >25% for 26-74% of SALL4 protein reduction, • ≥75% for 75-100% of SALL4 protein reduction.

[3] = tested on: IKZF3; experiment: IKZF3 degradation assay, H929 cell line (western blot densitometry); assay type: cell-based; conditions: H929 cells, after 24 h
Experimental: as §1, with “H929 cells were” for “Kelly cells were”, “Bovine Serum (FBS) and 0.05 mM 2-Mercaptoethanol. Cells were” for “Bovine Serum (FBS). Cells were”, “seeded on 6- or 12-well plates, and” for “seeded on 6-well plates, and”, “cells were harvested, washed and” for “cells were washed and”, “and secondary Ab staining, the” for “and secondary antibody staining, the”
Densitometry values are normalized to the loading control (β-ACTIN) and presented as % of DMSO control in Tables 4A and 4B, below, using the following labels: • ≤25% for 0-25% of IKZF3 protein reduction, • >25% for 26-74% of IKZF3 protein reduction, • ≥75% for 75-100% of IKZF3 protein reduction.

[4] = tested on: IKZF1; experiment: IKZF1 degradation assay, H929 cell line (western blot densitometry); assay type: cell-based; conditions: H929 cells, after 24 h
Experimental: H929 cells were maintained in RPMI-1640 medium, supplemented with penicillin/streptomycin, 10% Fetal Bovine Serum (FBS) and 0.05 mM 2-Mercaptoethanol. Cells were seeded on 6- or 12-well plates, and the compounds to be tested were added at the desired concentration range. Final DMSO concentration was 0.25%. After 24 h incubation (37° C., 5% CO2), cells were harvested, washed and cell lysates were prepared using RIPA lysis buffer. The amount of protein was determined via BCA assay, and the appropriate quantity was then loaded on the precast gel for the protein separation. After primary and secondary Ab staining, the membranes were washed and signals developed. The densitometry analysis was implemented to obtain the numeric values used later in the protein level evaluation process.
Densitometry values are normalized to the loading control (β-ACTIN) and presented as % of DMSO control in Table 3, below, using the following labels: • ≤25% for 0-25% of IKZF1 protein reduction, • >25% for 26-74% of IKZF1 protein reduction, • ≥75% for 75-100% of IKZF1 protein reduction.

[5] = tested on: H929 (myeloma); experiment: Viability, CTG (CellTiter-Glo) assay; assay type: cell-based; conditions: Homo sapiens, NCI-H929, H929, 72 hours, 100% = DMSO, read-out: Average of % viability of quadruplicate
Experimental: Three thousand cells in 50 μL of culture medium were plated in 384-well plate, and incubated with 50, 13, and 2 μM of each compound for 72 hours. ATP content in the remaining cells after the treatment was quantitated with the CellTiter-Glo Luminescent Viability Assay Kit (Promega). The activity of the compound at each concentration was shown as percentage viability; 100% viability was the ATP content in the cells incubated with DMSO, the carrier of the compounds.

Ki [1]: < 1000 nM
SMILES: Cc1nc2cc(N)ccc2cc1C1CCC(=O)NC1=O (stereo not drawn) [Compound 8, 3-(7-amino-2-methylquinolin-3-yl)piperidine-2,6-dione]

Ki [1]: < 1000 nM
SMILES: Cc1nc2cccc(NS(=O)(=O)c3ccccc3OC(F)(F)F)c2cc1C1CCC(=O)NC1=O (stereo not drawn) [Compound 17, N-(3-(2,6-dioxopiperidin-3-yl)-2-methylquinolin-5-yl)-2-(trifluoromethoxy)benzenesulfonamide]

Ki [1]: 1000 to 5000 nM
SMILES: Cc1nc2c([N+](=O)[O-])cccc2cc1C1CCC(=O)NC1=O (stereo not drawn) [Compound 7, 3-(2-methyl-8-nitroquinolin-3-yl)piperidine-2,6-dione]

Ki [1]: 1000 to 5000 nM
SMILES: Cc1nc2cccc(F)c2cc1C1CCC(=O)NC1=O (stereo not drawn) [Compound 3, 3-(5-fluoro-2-methylquinolin-3-yl)piperidine-2,6-dione]

Ki [1]: < 1000 nM
SMILES: Cc1nc2ccc(N)cc2cc1C1CCC(=O)NC1=O (stereo not drawn) [Compound 11, 3-(6-amino-2-methylquinolin-3-yl)piperidine-2,6-dione]

Ki [1]: 1000 to 5000 nM
SMILES: Cc1nc2cc(C(=O)N[C@@H](C)C3CCCCC3)ccc2cc1C1CCC(=O)NC1=O (stereo partly drawn) [Compound 9, N—((S)-1-cyclohexylethyl)-3-(2,6-dioxopiperidin-3-yl)-2-methylquinoline-7-carboxamide]

Ki [1]: 1000 to 5000 nM
SMILES: Cc1nc2ccccc2cc1C1CCC(=O)NC1=O (stereo not drawn) [Compound 13, 3-(2-methylquinolin-3-yl)piperidine-2,6-dione]

Ki [1]: 1000 to 5000 nM
SMILES: Cc1nc2cccc([N+](=O)[O-])c2cc1C1CCC(=O)NC1=O (stereo not drawn) [Compound 2, 3-(2-methyl-5-nitroquinolin-3-yl)piperidine-2,6-dione]

Ki [1]: 1000 to 5000 nM
SMILES: Cc1nc2cccc(N)c2cc1C1CCC(=O)NC1=O (stereo not drawn) [Compound 1, 3-(5-amino-2-methylquinolin-3-yl)piperidine-2,6-dione]
% of IKZF3 (bottom band) protein reduction ([3]; at 1 μM): >25% (>25% for 26-74% of IKZF3 protein reduction) | % of IKZF3 (upper band) protein reduction ([3]; at 1 μM): >25% (>25% for 26-74% of IKZF3 protein reduction) | % of IKZF3 (bottom band) protein reduction ([3]; at 10 μM): ≥75% (≥75% for 75-100% of IKZF3 protein reduction) | % of IKZF3 (upper band) protein reduction ([3]; at 10 μM): ≥75% (≥75% for 75-100% of IKZF3 protein reduction) | % of IKZF3 (bottom band) protein reduction ([3]; at 20 μM): ≥75% (≥75% for 75-100% of IKZF3 protein reduction) | % of IKZF3 (upper band) protein reduction ([3]; at 20 μM): ≥75% (≥75% for 75-100% of IKZF3 protein reduction) | % of IKZF1 protein reduction ([4]; at 1 μM): >25% (>25% for 26-74% of IKZF1 protein reduction) | % of IKZF1 protein reduction ([4]; at 10 μM): ≥75% (≥75% for 75-100% of IKZF1 protein reduction) | % of IKZF1 protein reduction ([4]; at 20 μM): ≥75% (≥75% for 75-100% of IKZF1 protein reduction) | viability at 2 µM ([5]; at 2 μM): 61.2% | viability at 13 µM ([5]; at 13 μM): 47.5% | viability at 50 µM ([5]; at 50 μM): 32.9% | % of SALL4 protein reduction ([2]; at 1 μM): ≤25% (≤25% for 0-25% of SALL4 protein reduction) | % of SALL4 protein reduction ([2]; at 10 μM): >25% (>25% for 26-74% of SALL4 protein reduction) | % of SALL4 protein reduction ([2]; at 20 μM): >25% (>25% for 26-74% of SALL4 protein reduction)

Ki [1]: 1000 to 5000 nM
SMILES: Cc1nc2c(NS(=O)(=O)c3ccccc3OC(F)(F)F)cccc2cc1C1CCC(=O)NC1=O (stereo not drawn) [Compound 20, N-(3-(2,6-dioxopiperidin-3-yl)-2-methylquinolin-8-yl)-2-(trifluoromethoxy)benzenesulfonamide]

Ki [1]: 5000 to 10000 nM
SMILES: Cc1nc2ccc([N+](=O)[O-])cc2cc1C1CCC(=O)NC1=O (stereo not drawn) [Compound 5, 3-(2-methyl-6-nitroquinolin-3-yl)piperidine-2,6-dione]

Ki [1]: < 1000 nM
SMILES: Cc1nc2cc(NS(=O)(=O)c3ccccc3OC(F)(F)F)ccc2cc1C1CCC(=O)NC1=O (stereo not drawn) [Compound 19, N-(3-(2,6-dioxopiperidin-3-yl)-2-methylquinolin-7-yl)-2-(trifluoromethoxy)benzenesulfonamide]

Continued, molecule first:

SMILES: Cc1nc2c(N)cccc2cc1C1CCC(=O)NC1=O (stereo not drawn) [Compound 10, 3-(8-amino-2-methylquinolin-3-yl)piperidine-2,6-dione]
Ki [1]: < 1000 nM

SMILES: Cc1nc2cccc(N)c2c(=O)n1C1CCC(=O)NC1=O (stereo not drawn) [CC-122]
% of SALL4 protein reduction ([2]; at 1 μM): ≥75% (≥75% for 75-100% of SALL4 protein reduction) | % of SALL4 protein reduction ([2]; at 10 μM): ≥75% (≥75% for 75-100% of SALL4 protein reduction) | % of SALL4 protein reduction ([2]; at 20 μM): ≥75% (≥75% for 75-100% of SALL4 protein reduction)

SMILES: Cc1ccc(NC(=O)NCc2ccc3cc(C4CCC(=O)NC4=O)c(C)nc3c2)cc1Cl (stereo not drawn) [Compound 15, 1-(3-chloro-4-methylphenyl)-3-{[3-(2,6-dioxopiperidin-3-yl)-2-methylquinolin-7-yl]methyl}urea]
Ki [1]: < 1000 nM

SMILES: Cc1nc2c(Cl)cccc2cc1C1CCC(=O)NC1=O (stereo not drawn) [Compound 21, 3-(8-chloro-2-methylquinolin-3-yl)piperidine-2,6-dione]
Ki [1]: 1000 to 5000 nM

SMILES: O=C1CCC(c2cnc3cccc([N+](=O)[O-])c3c2)C(=O)N1 (stereo not drawn) [Compound 12, 3-(5-nitroquinolin-3-yl)piperidine-2,6-dione]
Ki [1]: 1000 to 5000 nM

SMILES: Nc1cccc2ncc(C3CCC(=O)NC3=O)cc12 (stereo not drawn) [Compound 14, 3-(5-aminoquinolin-3-yl)piperidine-2,6-dione]
Ki [1]: < 1000 nM

SMILES: O=C1CCC(N2C(=O)c3ccccc3C2=O)C(=O)N1 (stereo not drawn) [Thalidomide, reference compound]
% of IKZF3 (bottom band) protein reduction ([3]; at 1 μM): ≤25% (≤25% for 0-25% of IKZF3 protein reduction) | % of IKZF3 (upper band) protein reduction ([3]; at 1 μM): ≤25% (≤25% for 0-25% of IKZF3 protein reduction) | % of IKZF3 (bottom band) protein reduction ([3]; at 10 μM): ≤25% (≤25% for 0-25% of IKZF3 protein reduction) | % of IKZF3 (upper band) protein reduction ([3]; at 10 μM): ≤25% (≤25% for 0-25% of IKZF3 protein reduction) | % of IKZF3 (bottom band) protein reduction ([3]; at 20 μM): >25% (>25% for 26-74% of IKZF3 protein reduction) | % of IKZF3 (upper band) protein reduction ([3]; at 20 μM): >25% (>25% for 26-74% of IKZF3 protein reduction) | % of IKZF1 protein reduction ([4]; at 1 μM): ≤25% (≤25% for 0-25% of IKZF1 protein reduction) | % of IKZF1 protein reduction ([4]; at 10 μM): ≤25% (≤25% for 0-25% of IKZF1 protein reduction) | % of IKZF1 protein reduction ([4]; at 20 μM): >25% (>25% for 26-74% of IKZF1 protein reduction) | % of SALL4 protein reduction ([2]; at 1 μM): >25% (>25% for 26-74% of SALL4 protein reduction) | % of SALL4 protein reduction ([2]; at 10 μM): >25% (>25% for 26-74% of SALL4 protein reduction) | % of SALL4 protein reduction ([2]; at 20 μM): ≥75% (≥75% for 75-100% of SALL4 protein reduction)

SMILES: Cc1nc2ccc(NS(=O)(=O)c3ccccc3OC(F)(F)F)cc2cc1C1CCC(=O)NC1=O (stereo not drawn) [Compound 18, N-(3-(2,6-dioxopiperidin-3-yl)-2-methylquinolin-6-yl)-2-(trifluoromethoxy)benzenesulfonamide]
Ki [1]: < 1000 nM

SMILES: Cc1nc2cc([N+](=O)[O-])ccc2cc1C1CCC(=O)NC1=O (stereo not drawn) [Compound 6, 3-(2-methyl-7-nitroquinolin-3-yl)piperidine-2,6-dione]
Ki [1]: 5000 to 10000 nM

SMILES: Cc1nc2cc(CNC(=O)C(F)(F)c3ccc(Cl)cc3)ccc2cc1C1CCC(=O)NC1=O (stereo not drawn) [Compound 16, 2-(4-chlorophenyl)-N-{[3-(2,6-dioxopiperidin-3-yl)-2-methylquinolin-7-yl]methyl}-2,2-difluoroacetamide]
Ki [1]: < 1000 nM

SMILES: Cc1nc2c(cnn2C)cc1C1CCC(=O)NC1=O (stereo not drawn) [Compound 4, 3-(1,6-dimethyl-1H-pyrazolo[3,4-b]pyridin-5-yl)piperidine-2,6-dione]
Ki [1]: 1000 to 5000 nM
